Usually IC50 stands for the midpoint of a concentration-inhibition curve.

Some results are limits rather than exact numbers.

The results in this text go back to patent US9617212B2, “Isoindolin-1-ones as macrophage migration inhibitory factor (MIF) inhibitors” (Controlled Chemicals, Inc., priority 2013, dated 2017).

The assay addresses T1, Human MIF (MIF tautomerase) (Homo sapiens, UniProt P14174).
T1 construct: purchased ProSpec
T1 sequence (P14174 2-115 limits assumed): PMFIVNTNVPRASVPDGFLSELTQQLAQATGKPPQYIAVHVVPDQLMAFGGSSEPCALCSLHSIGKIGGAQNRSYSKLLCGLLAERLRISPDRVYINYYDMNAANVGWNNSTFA
The assay can be described thus: MIF Tautomerase Inhibitory Assay with L-Dopachrome Methyl Ester. The format is biochemical. The settings on record: relative potency class, MIF tautomerase inhibition; L-dopachrome methyl ester substrate, pH 7.34, no pre-incubation; read-out: IC50. The method, then:
MIF Tautomerase Inhibitory Assay with L-Dopachrome Methyl Ester
Assay Method (pH 7.34, 0.017-0.033% DMSO, 0.034% EtOH): A fresh stock solution of L-dopachrome methyl ester in MeOH was prepared at 55-65 mM through oxidation of L-3,4-dihydroxyphenylalanine methyl ester hydrochloride with sodium periodate according to the procedure described in WO9729635A1. MeOH was removed from 0.5 mL of the L-dopachrome methyl ester/MeOH solution (55-65 mM) under a stream of argon and the residue taken up in appropriate amount of water to prepare a substrate solution (7-10 mM). Active Human MIF (from ProSpec) ([…]) was dissolved in 675 μL 0.1% bovine serum albumin (BSA) in water, and the resultant MIF solution (1 volume) mixed with 55 volumes of Na2HPO4 buffer (50 mM, pH 7.34) to form a 265 ng/mL MIF working solution. MIF working solution (280 μL) or a no-MIF working solution (prepared by mixing 0.1% BSA (1 volume) with the aforementioned Na2HPO4 buffer (55 volumes)) was transferred to wells in a column of 8 wells on a 96-well plate in a Plate Reader (SPECTRAmax Plus 384, Molecular Devices), and 5 μL of H2O/DMSO (99/1) containing no inhibitor or an inhibitor (whose concentration was verified by HPLC). Without pre-mixing or pre-incubation, 10 μL freshly prepared L-dopachrome methyl ester/H2O solution (7-10 mM) was added to each well with a multi-pipet. The assay samples were mixed immediately by sucking up and expelling the contents of the wells three times with a multi-pipet. The absorbance (A1) at 475 nm was then recorded for each sample every 2 s for 3 min. After 5-6 min, the samples were monitored again for 3 min with a reading every two seconds at 475 nm (A2). It can be shown that when [substrate]<<Km, plots of Ln(A1−A2) versus time are linear with slopes m (Eq 1). IC50 values were estimated from Eq 2-5, the inhibitor concentration [I] in the assay mixture and values of m in the presence (mi), absence (mo) of the inhibitor, the value of m observed for the non-MIF blank (mn), the MIF concentration (e), and the specificity constant for the MIF catalyzed reaction (kcat/Km). Ln(A1−A2)=−mt (Eq 1) F=(mi−mn)/(mo−mn) (Eq 2) Wherein mo−mn=ekcat/Km (Eq 3) and mi−mn=(ekcat/Km)[…] (Eq 4) IC50=[I]F/(1−F) (Eq 5)
The compounds listed in Table 1, provided herein, were prepared via procedures identical or similar to those described in the Examples 1-85. The listed compounds were >95% pure by HPLC. Each listed compound yielded a mass spectrum consistent with its structure. Concentrations of MIF tautomerase inhibitors used in the assay were verified by HPLC and the extinction coefficients of the inhibitors. The designated relative potency of MIF tautomerase inhibitors is based on the IC50 as determined by the method described in Biochemical Assay as follows: A, IC50<1 μM; B, 1 μM≦IC50<5 μM; C, 5 μM≦IC50<10 μM; D, 10 μM≦IC50<50 μM; E, 50 μM≦IC50<200 μM.

As for `CNC(=O)CCNC(C)C1CCC(CN2Cc3ccc(O)c(F)c3C2=O)CC1` (stereo not shown), the IC50 is less than 1000 nM.
Next, `CCC(Oc1cccc(F)c1)[C@H]1CC[C@H](CN2Cc3ccc(O)cc3C2=O)CC1` (stereo partly shown): less than 1000 nM; `O=C1c2cc(O)ccc2CN1C[C@H]1CC[C@H](C(=O)N2CCCCC2)CC1`: less than 1000 nM.
Next, `CCC(C(=O)OC(C)[C@H]1CC[C@H](CN2Cc3cc(F)c(O)cc3C2=O)CC1)c1ccccc1` (stereo partly shown): less than 1000 nM; `CC(OC(=O)CCC(=O)O)[C@H]1CC[C@H](CN2Cc3ccc(O)c(F)c3C2=O)CC1` (stereo partly shown): less than 1000 nM; `O=C1c2cc(O)ccc2CN1CCc1ccc(F)cc1`: 10000 to 50000 nM.
Take `COc1cc(F)cc(OC[C@H]2CC[C@H](CN3Cc4ccc(O)cc4C3=O)CC2)c1`: the IC50 is less than 1000 nM.
Regarding `O=C1c2cc(O)ccc2CN1[C@H]1CC[C@H](O)CC1`, the IC50 fell in the range of 10000 to 50000 nM.
Next, `CC(O)[C@H]1CC[C@H](CN2Cc3ccc(O)cc3C2=O)CC1` (stereo partly shown): less than 1000 nM; `CC(=O)OC(CCC1CCCCC1)[C@H]1CC[C@H](CN2Cc3ccc(O)cc3C2=O)CC1` (stereo partly shown): less than 1000 nM.
